Reference: ChEMBL document CHEMBL1201862, “PubChem BioAssay data set” (2004)
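How tested: cells in 96-well plates exposed to compound for 48 hours at five concentrations. GI50 marks 50% less growth.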 The source made the active and inactive calls. Cut-off read from the data, not from the text of the source: active = GI50 up to about 1.1 µM and inactive = higher. Residues, ends and D or L forms follow the SMILES beside them. *: point of attachment. Boc = CC(C)(C)OC(=O)*

Experiments:
Assay in all cases: inhibition of tumour cell growth, NCI panel, 48 h
Malme-3M = tested on: Malme-3M
KM12 = tested on: KM12
SF-295 = tested on: SF-295
EKVX = tested on: EKVX
COLO 205 = tested on: COLO 205
DU-145 = tested on: DU-145
SK-MEL-28 = tested on: SK-MEL-28
MDA-MB-435 = tested on: MDA-MB-435
MDA-N = tested on: MDA-N
NCI-H23 = tested on: NCI-H23
LOX IMVI = tested on: LOX IMVI
MCF7 = tested on: MCF7
RXF 393 = tested on: RXF 393
A498 = tested on: A498
BT-549 = tested on: BT-549

Measured: GI50

CCOc1cc(C=O)ccc1O [ETHYL VANILLIN]
inactive: Malme-3M > 100 µM | KM12 > 100 µM | SF-295 > 100 µM | EKVX > 100 µM | COLO 205 > 100 µM | DU-145 > 100 µM | SK-MEL-28 > 100 µM | MDA-MB-435 > 100 µM | MDA-N > 100 µM | NCI-H23 > 100 µM | LOX IMVI > 100 µM | MCF7 > 100 µM

CC(=O)c1cc2sc3ccccc3c2[nH]1
inactive: RXF 393 > 100 µM | Malme-3M > 100 µM | KM12 > 100 µM | SF-295 > 100 µM | COLO 205 > 100 µM | DU-145 > 100 µM | SK-MEL-28 > 100 µM | A498 > 100 µM | MDA-MB-435 > 100 µM | MDA-N > 100 µM | NCI-H23 > 100 µM | MCF7 > 100 µM

COC(CC1(/C=C/O[Si](C(C)C)(C(C)C)C(C)C)C(=O)N(COCC[Si](C)(C)C)c2ccccc21)OC (configuration not stated)
inactive: RXF 393 3.9 µM | KM12 36.1 µM | SF-295 7.96 µM | COLO 205 66.8 µM | DU-145 > 100 µM | SK-MEL-28 16.6 µM | A498 > 100 µM | MDA-MB-435 23.2 µM | MDA-N 24.9 µM | NCI-H23 25.1 µM | LOX IMVI 20.8 µM

CC(NC(=O)C(NC(=O)OC(C)(C)C)C(C)C)C(=O)N1CCCC1C(=O)NCC(=O)NC(C(=O)NCC(=O)O)C(C)C (configuration not stated) (Boc-VAPGVG-OH; configuration not given here)
inactive: Malme-3M > 100 µM | SF-295 > 100 µM | EKVX > 100 µM | COLO 205 > 100 µM | DU-145 > 100 µM | SK-MEL-28 > 100 µM | A498 > 100 µM | MDA-MB-435 > 100 µM | MDA-N > 100 µM | NCI-H23 > 100 µM | LOX IMVI > 100 µM | MCF7 > 100 µM

O=c1sc(Nc2ccc3ccccc3c2Cl)nc2ccccc12
inactive: RXF 393 72.1 µM | Malme-3M > 100 µM | KM12 > 100 µM | SF-295 > 100 µM | EKVX > 100 µM | COLO 205 > 100 µM | DU-145 > 100 µM | SK-MEL-28 > 100 µM | MDA-MB-435 37.1 µM | NCI-H23 > 100 µM | LOX IMVI > 100 µM | MCF7 > 100 µM | BT-549 > 100 µM

COc1cc(/C=C/C(=O)CC(=O)/C=C/c2ccc(O)c(OC)c2)ccc1O [CURCUMIN]
inactive: RXF 393 3 µM | Malme-3M 14 µM | KM12 5.45 µM | SF-295 8.04 µM | COLO 205 13.5 µM | DU-145 15.7 µM | SK-MEL-28 4.5 µM | A498 16 µM | MDA-MB-435 2.98 µM | NCI-H23 5.6 µM | LOX IMVI 2.72 µM | MCF7 3.34 µM | BT-549 4.97 µM

O=c1ccn(C2OC(COC3CCCCO3)C(OC3CCCCO3)C2OC2CCCCO2)c(=O)n1-c1ccccc1 (configuration not stated)
inactive: RXF 393 > 100 µM | Malme-3M > 100 µM | KM12 > 100 µM | SF-295 > 100 µM | EKVX > 100 µM | COLO 205 > 100 µM | DU-145 > 100 µM | SK-MEL-28 > 100 µM | A498 > 100 µM | MDA-MB-435 > 100 µM | MDA-N > 100 µM | NCI-H23 > 100 µM | LOX IMVI > 100 µM | MCF7 > 100 µM

CCOC(=O)C(NC(=O)c1cccc(Cl)c1)(Nc1ccc(S(=O)(=O)Nc2cc(C)on2)cc1)C(F)(F)F (configuration not stated)
inactive: RXF 393 42.5 µM | Malme-3M > 100 µM | KM12 > 100 µM | SF-295 14.4 µM | EKVX > 100 µM | COLO 205 > 100 µM | DU-145 > 100 µM | SK-MEL-28 > 100 µM | A498 > 100 µM | MDA-MB-435 > 100 µM | MDA-N > 100 µM | NCI-H23 > 100 µM | LOX IMVI > 100 µM | MCF7 > 100 µM

COc1ccc(CC2(O)C3CC4CCC2C4C3)cc1 (configuration not stated)
inactive: Malme-3M > 100 µM | KM12 > 100 µM | SF-295 42.6 µM | EKVX 49.8 µM | COLO 205 74.3 µM | SK-MEL-28 > 100 µM | MDA-MB-435 > 100 µM | NCI-H23 64.4 µM | LOX IMVI > 100 µM | MCF7 65.6 µM | BT-549 36.6 µM

O=C(Nc1ccn(C2CC(O)C(COC(c3ccccc3)(c3ccccc3)c3ccccc3)O2)c(=O)n1)c1ccccc1 (configuration not stated)
inactive: RXF 393 2.7 µM | Malme-3M 2.61 µM | KM12 4.35 µM | SF-295 1.96 µM | EKVX 4.27 µM | COLO 205 2.09 µM | DU-145 5.61 µM | SK-MEL-28 3.08 µM | MDA-MB-435 2.56 µM | MDA-N 1.96 µM | NCI-H23 1.33 µM | MCF7 2.43 µM

COC(=O)[C@]1(C)CCCn2c(=O)n(-c3ccccc3)c(=O)n21
inactive: RXF 393 > 100 µM | KM12 > 100 µM | SF-295 > 100 µM | EKVX > 100 µM | COLO 205 > 100 µM | DU-145 > 100 µM | SK-MEL-28 > 100 µM | A498 > 100 µM | MDA-MB-435 > 100 µM | NCI-H23 > 100 µM | LOX IMVI > 100 µM | MCF7 > 100 µM | BT-549 > 100 µM
